Data taken from ChEMBL document CHEMBL5252558, “Noonindoles G-L: Indole Diterpene Glycosides from the Australian Marine-Derived Fungus Aspergillus noonimiae CMB-M0339” (J Nat Prod, 2023).
The source made the active and inactive calls. The calls are words filed in the database; no cut-off is given here.

What was measured:
Candida albicans = assay: Antifungal activity against Candida albicans ATCC 10231 assessed as inhibition of fungal growth incubated for 48 hrs by spectrophotometric analysis; assay type: functional, organism-based
SW-620 = assay: Cytotoxicity against human SW620 cells assessed as inhibition of cell growth incubated for 68 hrs by MTT assay; assay type: functional, cell-based; details: SW-620, 68 h
Staphylococcus aureus = assay: Antibacterial activity against Staphylococcus aureus ATCC 25923 assessed as inhibition of bacterial growth incubated for 24 hrs by spectrophotometric analysis; assay type: functional, organism-based
NCI-H460 = assay: Cytotoxicity against human NCI-H460 cells assessed as inhibition of cell growth incubated for 68 hrs by MTT assay; assay type: functional, cell-based; details: NCI-H460, 68 h
Bacillus subtilis = assay: Antibacterial activity against Bacillus subtilis ATCC 6633 assessed as inhibition of bacterial growth incubated for 24 hrs by spectrophotometric analysis; assay type: functional, organism-based
Escherichia coli = assay: Antibacterial activity against Escherichia coli ATCC 11775 assessed as inhibition of bacterial growth incubated for 24 hrs by spectrophotometric analysis; assay type: functional, organism-based

| SMILES | Activity (Candida albicans) | IC50 (SW-620) [µM] | Activity (Staphylococcus aureus) | IC50 (NCI-H460) [µM] | Activity (Bacillus subtilis) | Activity (Escherichia coli) |
| --- | --- | --- | --- | --- | --- | --- |
| CC(C)(O[C@@H]1O[C@H](CO)[C@@H](O)[C@H](O)[C@@H]1O)[C@H]1O[C@H]2CC[C@@]3(C)[C@@H](CC[C@H]4Cc5c([nH]c6ccccc56)[C@@]43C)C2=C[C@H]1O | inactive | > 30 | inactive | > 30 | inactive | inactive |
| CC(C)(O[C@@H]1O[C@H](CO)[C@@H](O)[C@H](O)[C@@H]1O)[C@@H]1CC[C@]2(C=O)[C@H](CC[C@@]3(C)[C@H]2CC[C@H]2Cc4c([nH]c5ccccc45)[C@@]23C)O1 | inactive | > 30 | inactive | > 30 | inactive | inactive |
| CC(C)(O[C@@H]1O[C@H](CO)[C@@H](O)[C@H](O)[C@@H]1O)[C@H]1O[C@H]2CC[C@@]3(C)[C@@H](CC[C@H]4Cc5c([nH]c6ccccc56)[C@@]43C)C2=CC1=O | inactive | > 30 | inactive | > 30 | inactive | inactive |
| CC(C)(O[C@@H]1O[C@H](CO)[C@@H](O)[C@H](O)[C@@H]1O)[C@@H]1CC[C@]2(CO)[C@H](CC[C@@]3(C)[C@H]2CC[C@H]2Cc4c([nH]c5ccccc45)[C@@]23C)O1 | inactive | > 30 | inactive | > 30 | inactive | inactive |
| CC(C)(O[C@@H]1O[C@H](CO)[C@@H](O)[C@H](O)[C@@H]1O)[C@H]1O[C@@]2(O)CC[C@@]3(C)[C@@H](CC[C@H]4Cc5c([nH]c6ccccc56)[C@@]43C)C2=CC1=O | inactive | > 30 | inactive | > 30 | inactive | inactive |
| CC(C)(O[C@@H]1O[C@H](CO)[C@@H](O)[C@H](O)[C@@H]1O)[C@@H]1CC[C@]2(C)[C@H](CC[C@@]3(C)[C@H]2CC[C@H]2Cc4c([nH]c5ccccc45)[C@@]23C)O1 | inactive | > 30 | inactive | > 30 | inactive | inactive |
